Results as given in ChEMBL document CHEMBL4715747 (Eur J Med Chem, 2016).
pIC50: −log10 of the molar value. Active and inactive are the calls of the source. The rule behind the calls is not given here.

Key:
H22 [1] = assay: Antitumor activity against mouse H22 cells transplanted in Kunming mouse assessed as tumor growth inhibition at 100 mg/kg/day, po administered 5 days per week for 2 weeks; format: functional, organism-based
[2] = Antiproliferative activity against human 3AO cells after 48 hrs by MTT assay
KG-1 = assay: Antiproliferative activity against human KG1 cells after 48 hrs by MTT assay; conditions: KG-1, 48 h
HCT-116 = assay: Antiproliferative activity against human HCT-116 cells after 48 hrs by MTT assay; conditions: HCT-116, 48 h
HeLa = assay: Antiproliferative activity against human HeLa cells after 48 hrs by MTT assay
HepG2 = assay: Antiproliferative activity against human HepG2 cells after 48 hrs by MTT assay; conditions: HepG2, 48 h
MCF7 = assay: Antiproliferative activity against human MCF7 cells after 48 hrs by MTT assay; conditions: MCF7, 48 h
HEL = assay: cells; conditions: Homo sapiens, 48 h
Description: Antiproliferative activity against human HEL cells after 48 hrs by MTT assay

[3] = Antiproliferative activity against human ES2 cells after 48 hrs by MTT assay; conditions: ES-2, 48 h
HUVEC [4] = assay: Anti-angiogenesis activity in HUVEC assessed as inhibition of capillary like tube formation at 30 uM incubated for 6 hrs by matrigel based capillary tube formation assay; format: functional
[5] = Antiproliferative activity against human H7402 cells after 48 hrs by MTT assay; conditions: H7402, 48 h
PLC-PRF-5 [6] = assay: Antiproliferative activity against human PLC-PRF-5 cells after 48 hrs by MTT assay; conditions: PLC-PRF-5, 48 h
MDA-MB-231 = assay: cells; conditions: Homo sapiens, MDA-MB-231, 48 h
Description: Antiproliferative activity against human MDA-MB-231 cells after 48 hrs by MTT assay

Aorta = assay: Anti-angiogenesis activity in Wistar rat thoracic aortic rings assessed as decrease in number of microvessels sprouting at 20 ug/ml treated every other day for 9 days; format: functional, tissue-based; conditions: dose 20.0 µg/ml, time 9.0 day
[7] = Toxicity in Kunming mouse transplanted with mouse H22 cells assessed as side effects at 40 to 80 mg/kg/day, po administered 5 days per week for 2 weeks; format: organism-based; conditions: in vivo, 336 h, dose 40-80 mg/kg/day
[8] = Toxicity in BALB/c athymic nude mouse xenografted with human PLC-PRF-5 cells assessed as change in body weight at 20 to 80 mg/kg, iv; format: organism-based; conditions: in vivo, dose 20-80 mg/kg
Aminopeptidase N = target: T1, Aminopeptidase N (Sus scrofa, UniProt P15145); assay: Inhibition of porcine kidney microsomal CD13 using L-leucine-p-nitroanilide as substrate preincubated for 5 mins followed by substrate addition and measured after 30 mins by microplate reader analysis; format: microsomes, Microsome
T1 sequence (P15145 whole entry): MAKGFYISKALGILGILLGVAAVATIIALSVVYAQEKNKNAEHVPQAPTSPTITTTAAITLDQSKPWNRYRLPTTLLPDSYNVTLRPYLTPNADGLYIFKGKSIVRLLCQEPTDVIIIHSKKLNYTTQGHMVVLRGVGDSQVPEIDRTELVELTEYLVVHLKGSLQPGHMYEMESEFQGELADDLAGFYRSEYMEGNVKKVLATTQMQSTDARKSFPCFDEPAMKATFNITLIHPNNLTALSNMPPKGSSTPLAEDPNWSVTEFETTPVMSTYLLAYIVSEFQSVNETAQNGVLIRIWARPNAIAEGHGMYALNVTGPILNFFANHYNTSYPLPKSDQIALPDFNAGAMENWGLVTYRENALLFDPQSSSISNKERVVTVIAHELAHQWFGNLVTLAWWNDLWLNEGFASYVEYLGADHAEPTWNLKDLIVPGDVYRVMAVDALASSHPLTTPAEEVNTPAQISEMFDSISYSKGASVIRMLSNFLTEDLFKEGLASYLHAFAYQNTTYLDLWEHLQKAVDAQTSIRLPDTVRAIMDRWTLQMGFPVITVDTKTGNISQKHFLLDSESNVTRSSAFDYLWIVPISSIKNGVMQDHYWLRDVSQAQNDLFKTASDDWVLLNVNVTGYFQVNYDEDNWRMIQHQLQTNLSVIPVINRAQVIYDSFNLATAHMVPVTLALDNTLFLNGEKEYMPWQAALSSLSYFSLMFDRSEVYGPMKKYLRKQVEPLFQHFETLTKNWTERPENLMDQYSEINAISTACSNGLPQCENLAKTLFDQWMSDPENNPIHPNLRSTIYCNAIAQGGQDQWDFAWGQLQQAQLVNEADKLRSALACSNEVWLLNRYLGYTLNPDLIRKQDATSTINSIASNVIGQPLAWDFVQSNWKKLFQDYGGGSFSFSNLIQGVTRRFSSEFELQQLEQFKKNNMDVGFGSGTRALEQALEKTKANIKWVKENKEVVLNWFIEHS

[9] = Toxicity in Kunming mouse transplanted with 5-FU-resistant mouse H22 cells assessed as change in body weight at 200 uM/kg/day, po administered daily for 14 days; format: organism-based; conditions: in vivo, 336 h, time 14 day
H22 [10] = assay: Antitumor activity against mouse H22 cells transplanted in iv dosed Kunming mouse assessed as tumor growth inhibition administered 5 days per week for 2 weeks; format: functional, organism-based; conditions: dose 20-80 mg/kg
PC-3 = assay: cells; conditions: Homo sapiens, PC-3, 48 h
Description: Antiproliferative activity against human PC-3 cells after 48 hrs by MTT assay

H22 [11] = assay: Antitumor activity against 5-FU-resistant mouse H22 cells transplanted in Kunming mouse assessed as tumor growth inhibition at 200 uM/kg/day, po administered for 14 days; format: functional, organism-based; conditions: time 14.0 day
H22 [12] = assay: Antitumor activity against mouse H22 cells transplanted in Kunming mouse assessed as tumor growth inhibition at 80 mg/kg/day, iv administered 5 days per week for 2 weeks relative to treated combination of 5-FU and Ube; format: functional, organism-based
H22 [13] = assay: Antitumor activity against mouse H22 cells transplanted in Kunming mouse assessed as tumor growth inhibition at 80 mg/kg/day, po administered 5 days per week for 2 weeks; format: functional, organism-based
PLC-PRF-5 [14] = assay: Antitumor activity against human PLC-PRF-5 cells xenografted in iv dosed BALB/c athymic nude mouse assessed as tumor growth inhibition; format: functional, organism-based; conditions: dose 20-80 mg/kg
[15] = Prodrug conversion in human plasma assessed as release of active metabolites 5-FU and Ube measured within 30 mins at 37 degC; format: ADME, cell-free; conditions: 0.5 h
[16] = Toxicity in NOD/SCID mouse xenografted with human PLC-PRF-5 cells assessed as change in body weight at 100 to 120 mg/kg, po; format: organism-based; conditions: in vivo, dose 100-120 mg/kg
PLC-PRF-5 [17] = assay: Antitumor activity against human PLC-PRF-5 cells xenografted in orally dosed NOD/SCID mouse assessed as tumor growth inhibition; format: functional, organism-based; conditions: dose 100-120 mg/kg
HUVEC [18] = assay: Anti-angiogenesis activity in HUVEC assessed as inhibition of capillary like tube formation incubated for 6 hrs by matrigel based capillary tube formation assay; format: functional, cell-based; conditions: Homo sapiens, dose 10-30 µM
H22 [19] = assay: Antitumor activity against mouse H22 cells transplanted in orally dosed Kunming mouse assessed as tumor growth inhibition administered 5 days per week for 2 weeks; format: functional, organism-based; conditions: dose 40-80 mg/kg
[20] = Toxicity in Kunming mouse transplanted with mouse H22 cells assessed as change in body weight at 40 to 80 mg/kg/day, po administered 5 days per week for 2 weeks; format: organism-based; conditions: in vivo, 336 h, dose 40-80 mg/kg/day
H22 [21] = assay: Antimetastatic activity against mouse H22 cells inoculated in orally dosed Kunming mouse assessed as reduction in lung metastatic nodes administered for 5 days starting from day 11 post inoculation and 2 days of withdrawal measured after 24 days; format: functional, organism-based; conditions: dose 80-100 mg/kg, time 5.0 day
A549 = assay: Antiproliferative activity against human A549 cells after 48 hrs by MTT assay; conditions: A549, 48 h
H22 [22] = assay: Antitumor activity against mouse H22 cells transplanted in Kunming mouse assessed as tumor growth inhibition at 20 mg/kg/day, ip administered 5 days per week for 2 weeks; format: functional, organism-based

Row | SMILES | pIC50 [2] | pIC50 (KG-1) | pIC50 (HCT-116) | pIC50 (HeLa) | pIC50 (HepG2) | pIC50 (MCF7) | pIC50 (HEL) | pIC50 [3] | pIC50 [5] | pIC50 (PLC-PRF-5 [6]) | pIC50 (MDA-MB-231) | Activity (Aorta) | pIC50 (PC-3) | Activity (H22 [11]) | also measured
1 | CCCCCOC(=O)Nc1nc(=O)n([C@@H]2O[C@H](C)[C@@H](O)[C@H]2O)cc1F | – | – | – | – | – | – | – | – | – | – | – | – | – | – | Activity (H22 [1]): Active
2 | CC(C)C[C@H](NC(=O)[C@@H](O)[C@H](N)Cc1ccccc1)C(=O)O [UBENIMEX] | < 3.30 | < 3.30 | 3.50 | < 3.30 | < 3.30 | < 3.30 | 3.38 | < 3.30 | < 3.30 | < 3.30 | < 3.30 | Active | – | – | Activity (HUVEC [4]; Homo sapiens): Active
3 | CC(C)C[C@H](NC(=O)[C@@H](O)[C@H](N)Cc1ccccc1)C(=O)OCn1cc(F)c(=O)[nH]c1=O.Cl | 4.59 | 4.51 | 4.83 | 5.14 | 5.13 | 4.72 | 5.04 | 4.64 | 4.94 | 4.76 | 4.98 | Active | 4.61 | Active | Activity [7]: Non-Toxic; Activity [8]: Non-Toxic; pIC50 (Aminopeptidase N): 5.16; Activity [9]: Non-Toxic; Activity (H22 [10]): Dose-dependent effect; Activity (H22 [12]): Active; Activity (H22 [13]): Active; Activity (PLC-PRF-5 [14]): Dose-dependent effect; Activity (HUVEC [4]): 100%; Drug metabolism [15]: Metabolite_Detected; Activity [16]: Non-Toxic; Activity (PLC-PRF-5 [17]): Dose-dependent effect; Activity (HUVEC [18]): Dose-dependent effect; Activity (H22 [19]): Dose-dependent effect; Activity [20]: Non-Toxic; Activity (H22 [21]): Dose-dependent effect; pIC50 (A549): 5.25
4 | O=c1[nH]cc(F)c(=O)[nH]1 [FLUOROURACIL] | 4.22 | 4.08 | 4.07 | 3.88 | 4.87 | 4.15 | 4.49 | 4.03 | 4.54 | 4.42 | 4.65 | – | 3.97 | inactive | Activity (H22 [22]): Active
